Experiments:
[1] = molecular target: mouse TRPM7 (mTRPM7) fused to a myc tag (mTRPM7-myc) (mouse) (UniProt Q923J1)
mTRPM7 = molecular target: T1, mTRPM7 (Mus musculus, UniProt Q923J1); assay: whole-cell patch clamp, intracellular dose response ([…] free Mg2+); format: cell-based
T1 construct: gene Trpm7; full-length mTRPM7 in pIRES2-EGFP, HEK 293 cells

mTRPM6 = molecular target: T2, mTRPM6 (Mus musculus, UniProt Q8CIR4); assay: whole-cell patch clamp; […] inhibits currents; format: cell-based
T2 construct: gene Trpm6; full-length mTRPM6 (2028 aa) in pIRES2-EGFP, HEK 293 cells
T2 sequence (Q8CIR4 whole entry): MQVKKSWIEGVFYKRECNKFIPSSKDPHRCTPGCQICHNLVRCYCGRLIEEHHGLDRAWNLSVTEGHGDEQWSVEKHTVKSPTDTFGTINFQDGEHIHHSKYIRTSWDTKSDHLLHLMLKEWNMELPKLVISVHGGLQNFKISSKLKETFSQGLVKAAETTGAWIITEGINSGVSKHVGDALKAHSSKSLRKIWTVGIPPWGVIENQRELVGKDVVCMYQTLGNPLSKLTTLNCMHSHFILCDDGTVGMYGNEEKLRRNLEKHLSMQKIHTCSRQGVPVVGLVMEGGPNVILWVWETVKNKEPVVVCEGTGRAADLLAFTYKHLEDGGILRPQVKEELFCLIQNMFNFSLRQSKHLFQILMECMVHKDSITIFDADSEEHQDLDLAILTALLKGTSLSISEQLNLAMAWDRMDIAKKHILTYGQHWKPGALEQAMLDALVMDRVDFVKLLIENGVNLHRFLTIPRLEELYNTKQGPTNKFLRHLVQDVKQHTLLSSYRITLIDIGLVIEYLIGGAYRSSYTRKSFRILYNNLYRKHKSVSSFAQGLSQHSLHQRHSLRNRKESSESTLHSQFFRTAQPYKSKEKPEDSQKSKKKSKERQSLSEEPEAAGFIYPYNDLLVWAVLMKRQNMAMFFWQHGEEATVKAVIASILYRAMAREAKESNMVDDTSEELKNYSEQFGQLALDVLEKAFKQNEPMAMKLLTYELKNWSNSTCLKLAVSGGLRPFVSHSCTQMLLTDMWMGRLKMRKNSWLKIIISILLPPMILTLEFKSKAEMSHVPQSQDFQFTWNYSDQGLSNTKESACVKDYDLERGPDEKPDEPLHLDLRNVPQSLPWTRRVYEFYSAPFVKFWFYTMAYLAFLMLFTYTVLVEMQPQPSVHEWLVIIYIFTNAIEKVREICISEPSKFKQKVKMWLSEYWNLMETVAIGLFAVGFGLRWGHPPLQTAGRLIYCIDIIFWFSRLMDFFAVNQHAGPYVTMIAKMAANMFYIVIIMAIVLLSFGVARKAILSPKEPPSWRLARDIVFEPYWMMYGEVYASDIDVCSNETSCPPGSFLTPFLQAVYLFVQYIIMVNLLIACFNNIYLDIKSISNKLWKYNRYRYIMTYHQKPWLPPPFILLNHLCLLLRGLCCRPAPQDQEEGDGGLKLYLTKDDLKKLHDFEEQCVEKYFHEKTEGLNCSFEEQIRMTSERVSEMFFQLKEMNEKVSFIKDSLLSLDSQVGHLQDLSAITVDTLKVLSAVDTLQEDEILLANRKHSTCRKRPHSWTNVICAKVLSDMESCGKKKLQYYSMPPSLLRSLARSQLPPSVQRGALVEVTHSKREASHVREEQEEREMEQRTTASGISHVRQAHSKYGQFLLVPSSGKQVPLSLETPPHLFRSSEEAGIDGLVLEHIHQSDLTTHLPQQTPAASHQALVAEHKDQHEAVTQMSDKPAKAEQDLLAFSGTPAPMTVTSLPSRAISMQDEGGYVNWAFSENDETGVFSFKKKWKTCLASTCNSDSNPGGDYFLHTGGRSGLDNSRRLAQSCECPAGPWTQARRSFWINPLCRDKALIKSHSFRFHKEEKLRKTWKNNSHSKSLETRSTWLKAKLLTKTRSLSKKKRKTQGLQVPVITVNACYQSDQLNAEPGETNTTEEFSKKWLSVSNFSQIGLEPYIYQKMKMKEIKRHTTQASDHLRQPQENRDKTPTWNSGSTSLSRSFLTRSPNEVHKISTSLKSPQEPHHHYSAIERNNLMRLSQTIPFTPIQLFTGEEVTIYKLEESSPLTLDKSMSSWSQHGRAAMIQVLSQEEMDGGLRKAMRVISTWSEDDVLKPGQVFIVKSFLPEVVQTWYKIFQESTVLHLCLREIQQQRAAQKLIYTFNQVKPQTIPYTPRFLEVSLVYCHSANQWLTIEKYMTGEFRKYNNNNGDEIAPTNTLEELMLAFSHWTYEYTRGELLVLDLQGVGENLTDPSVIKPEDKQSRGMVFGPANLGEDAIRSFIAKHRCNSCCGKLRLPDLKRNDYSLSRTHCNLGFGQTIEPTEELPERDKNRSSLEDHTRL

Chain of mouse TRPM7 (mTRPM7) fused to a myc tag (mTRPM7-myc) (mouse) (Q923J1 whole entry, the tested form may be a part): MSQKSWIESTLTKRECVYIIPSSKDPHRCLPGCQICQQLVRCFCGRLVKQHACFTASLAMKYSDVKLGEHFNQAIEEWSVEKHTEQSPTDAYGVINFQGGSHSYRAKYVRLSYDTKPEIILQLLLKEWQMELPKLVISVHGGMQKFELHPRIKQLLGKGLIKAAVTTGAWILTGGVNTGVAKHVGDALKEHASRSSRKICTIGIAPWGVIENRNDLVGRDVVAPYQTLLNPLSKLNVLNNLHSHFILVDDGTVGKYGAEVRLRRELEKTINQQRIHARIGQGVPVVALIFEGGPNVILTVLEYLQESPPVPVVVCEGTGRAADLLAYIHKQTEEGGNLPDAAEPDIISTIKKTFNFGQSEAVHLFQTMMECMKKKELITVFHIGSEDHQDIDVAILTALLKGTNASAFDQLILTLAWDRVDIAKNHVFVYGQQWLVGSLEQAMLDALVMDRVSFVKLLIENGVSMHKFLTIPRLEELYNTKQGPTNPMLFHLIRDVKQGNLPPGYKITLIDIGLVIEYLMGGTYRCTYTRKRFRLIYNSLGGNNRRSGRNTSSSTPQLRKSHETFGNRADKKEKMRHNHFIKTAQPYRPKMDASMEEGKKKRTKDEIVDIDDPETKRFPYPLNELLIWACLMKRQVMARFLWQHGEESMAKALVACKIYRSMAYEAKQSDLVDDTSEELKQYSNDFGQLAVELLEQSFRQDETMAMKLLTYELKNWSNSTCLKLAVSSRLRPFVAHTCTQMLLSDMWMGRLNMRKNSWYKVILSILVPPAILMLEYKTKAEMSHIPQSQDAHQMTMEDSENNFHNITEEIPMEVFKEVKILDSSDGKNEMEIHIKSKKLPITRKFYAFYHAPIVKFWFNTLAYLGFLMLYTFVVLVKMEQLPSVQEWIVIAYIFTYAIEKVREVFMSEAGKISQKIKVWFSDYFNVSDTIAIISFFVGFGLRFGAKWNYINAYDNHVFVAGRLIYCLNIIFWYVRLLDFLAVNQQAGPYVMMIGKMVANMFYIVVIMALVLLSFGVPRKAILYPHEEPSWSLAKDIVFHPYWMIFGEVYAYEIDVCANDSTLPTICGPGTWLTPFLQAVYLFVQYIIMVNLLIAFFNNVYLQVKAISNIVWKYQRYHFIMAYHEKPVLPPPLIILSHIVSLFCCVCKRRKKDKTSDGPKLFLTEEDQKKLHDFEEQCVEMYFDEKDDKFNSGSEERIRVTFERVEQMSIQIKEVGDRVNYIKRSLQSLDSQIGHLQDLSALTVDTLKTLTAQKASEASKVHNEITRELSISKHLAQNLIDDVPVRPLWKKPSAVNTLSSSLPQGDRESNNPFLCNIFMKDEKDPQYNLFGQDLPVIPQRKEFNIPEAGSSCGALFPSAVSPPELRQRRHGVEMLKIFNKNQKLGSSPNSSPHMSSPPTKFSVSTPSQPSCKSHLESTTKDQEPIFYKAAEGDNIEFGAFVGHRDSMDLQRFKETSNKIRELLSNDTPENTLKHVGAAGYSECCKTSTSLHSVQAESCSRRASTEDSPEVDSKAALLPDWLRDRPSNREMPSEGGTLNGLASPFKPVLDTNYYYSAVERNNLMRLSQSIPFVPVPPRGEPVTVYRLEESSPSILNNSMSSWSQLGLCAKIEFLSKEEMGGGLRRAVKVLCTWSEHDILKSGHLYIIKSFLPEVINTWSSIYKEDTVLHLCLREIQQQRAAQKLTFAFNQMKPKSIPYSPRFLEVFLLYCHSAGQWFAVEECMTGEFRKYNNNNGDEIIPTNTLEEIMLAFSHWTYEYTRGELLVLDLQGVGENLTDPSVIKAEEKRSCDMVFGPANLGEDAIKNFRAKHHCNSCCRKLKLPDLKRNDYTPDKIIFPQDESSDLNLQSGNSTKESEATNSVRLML
T1 sequence (Q923J1 whole entry): as the sequence (Q923J1 whole entry, the tested form may be a part) above

## mouse TRPM6 with a C-terminal yellow fluorescent protein tag (mTRPM6-YFP), Q8CIR4 1-2028
[1]
  whole-cell currents at break-in (pre-activated outward currents) in HEK 293 cells co-transfected with mTRPM6 and mTRPM7, against cells with mTRPM7 alone: 10 fold

## Nc1ncnc2c1ncn2[C@@H]1O[C@H](COP(=O)(O)OP(=O)(O)OP(=O)(O)O)[C@@H](O)[C@H]1O [Mg·ATP]
mTRPM7
  IC50: 2930 µM

## c1ccc2c(c1)CCC[C@H]2Nc1nc2ccccc2[nH]1 [NS8593]
mTRPM6
  whole-cell patch clamp; 10 μM inhibits currents: We noted that NS8593 caused a rapid irreversible inhibition of mTRPM6

Reference: paper PMC5562840, “TRPM6 and TRPM7 differentially contribute to the relief of heteromeric TRPM6/7 channels from inhibition by cytosolic Mg^2+ and Mg·ATP” (Scientific Reports, 2017)
